Measured values from patent publication US11419878B2, “Medicine obtained by combining FXR agonist and ARB” (Intercept Pharmaceuticals, Inc., priority 2016, dated 2022).

Experiments:
α1(I) procollagen = assay: HHSC fibrosis marker gene expression, RT-PCR, α1(I) procollagen; type: cell-based, human; details: AT-II 10^-6M + LPS 10^-5M; ARB 10^-6M, obeticholic acid 5×10^-6M; 24 hours; monotherapy vs G2AL, combination vs monotherapy groups
Experimental: The various combined effects of obeticholic acid and three types of ARBs (losartan, valsartan, and candesartan) were confirmed in an in vitro cell system experiment. Specifically, using human hepatic stellate cells (HHSC), which are implicated in the main mechanism of progression of hepatic fibrosis in NASH, the effects of administration of obeticholic acid in combination with the three ARBs of inhibiting HHSC proliferation capacity and the expression of fibrosis markers were evaluated according to the following method. Human hepatic stellate cells (HHSC) (also referred to as human hepatic star cells) Obeticholic acid (obtained from Intercept Pharmaceuticals, Inc. via Sumitomo Dainippon Pharma Co., Ltd.) was used as an FXR agonist, and commercial losartan (potassium salt of losartan; referred to in this working example simply as “losartan”) and valsartan and candesartan ([…] of candesartan; referred to in this working example simply as “candesartan”) were used as ARBs. Angiotensin II (AT-II) and/or lipopolysaccharide (LPS) were used (both AT1-mediated AT-II signalling and TLR4-mediated LPS signaling are known to play major roles in HSC activation and the progression of hepatic fibrosis). With respect to the effect of inhibiting fibrosis marker gene expression, collagen production capacity and TGF-β production capacity were evaluated by the RT-PCR method. 1) HHSCs were inoculated onto a 6-well plate in the amount of 300,000 cells/2 ml and allowed to proliferate in 1% FBS DMEM medium for 24 hours. 2) After 24 hours, the cells were divided into the following 7 groups and transferred to culture medium after adding the following drugs and/or reagents. Losartan was used as an ARB. Negative control group (G1): No drugs added (control) […] AT-II (10^-6M) Positive control group L […]): LPS (10^-5M) Positive control group AL ([…]): (10^-6M)+LPS (10^-5M) Obeticholic acid administration (G3): AT-II (10^-6M)+LPS (10^-5M)+obeticholic acid (5×10^-6M) ARB administration (G4): AT-II (10^-6M)+LPS (10^-5M)+ARB (10^-6M) Obeticholic acid+ARB combined administration (G5): AT-II (10^-6M)+LPS (10^-5M)+obeticholic acid (5×10^-6M)+ARB (10^-6M) […] Evaluations were conducted in the five groups G1, G2AL, G3, G4, and G5.

[1] = test system: C57Bl/6J mice fed a choline-deficient, amino acid-defined, high-fat diet (CDAHFD); assay: Murine NASH model (CDAHFD-fed mice), H&E histology: liver cell swelling, fatty degeneration, NAS; type: in vivo, mouse; details: obeticholic acid 30 mg/kg/day and/or losartan 30 mg/kg/day oral, 3 weeks from 2.5 weeks of diet
Text: The accepted pathological diagnostic criterion for NASH is “observation of liver cell ballooning accompanied by inflammation in addition to large-droplet hepatic steatosis.” Matteoni et al. conducted a long-term follow-up study of patients with NAFLD, classifying the disease based on pathology findings into 4 types (type 1: fatty liver alone, type 2: fat accumulation plus inflammatory cell infiltration, type 3: fat accumulation plus ballooning hepatocyte degeneration, type 4: fat accumulation/ballooning hepatocyte degeneration plus Mallory-Denk bodies or fibrosis). […] In order to reduce differences among individual observers and institutions, the Nonalcoholic Steatohepatitis Clinical Research Network has proposed a pathodiagnostic scoring system in which the extent of fatty degeneration, inflammation, and hepatocyte ballooning is scored (NAS: NAFLD Activity Score) (Matteoni C A, Younossi Z M, Gramlich T, Boparai N, Liu Y C, McCullough A J: Nonalcoholic fatty liver disease: A spectrum of clinical and pathological severity. Gastroenterology, 116; 1413-1419, 1999). The pathodiagnostic standards making up the NASH score were evaluated using the following animal model, and the individual and combined effects of an FXR agonist (obeticholic acid) and an ARB (losartan) were studied. […]

CC[C@H]1[C@@H](O)[C@@H]2[C@H](CC[C@]3(C)[C@@H]([C@H](C)CCC(=O)O)CC[C@@H]23)[C@@]2(C)CC[C@@H](O)C[C@@H]12 [obeticholic acid, 3α,7α-dihydroxy-6α-ethyl-5β-cholan-24-oic acid]
α1(I)-procollagen mRNA expression induced by AT-II and LPS in HHSC (α1(I) procollagen): statistically significant inhibition | liver cell swelling (positive area rate, improvement) [1]: tended to be inhibited

CCCCc1nc(Cl)c(CO)n1Cc1ccc(-c2ccccc2-c2nn[nH]n2)cc1 [losartan]
α1(I)-procollagen mRNA expression induced by AT-II and LPS in HHSC (α1(I) procollagen): statistically significant inhibition | liver cell swelling (positive area rate, improvement) [1]: no improving tendency whatsoever
